Like-named read-outs stand apart in the source and are kept apart here.
How the values were obtained:
[1] = Stabilization of 5-Chloro and 2-Methyl mixture by norbornene in 2-propanol, 55° C oven; assay type: physicochemical; details: 2-propanol, 55° C
Description: This solution was distributed into 6 vials and varying amounts of norbornene added.

[2] = for 2-Methyl (%) / 5-Chloro (%): 2-propanol + 2% water, 55° C
Procedure: A solution of 5-chloro-2methyl-3-isothiazolone ("5-Chloro") and 2-methyl-3-isothiazolone ("2-Methyl") (3.11 g) was prepared in 2-propanol (12.1 g). This solution was distributed in 6 vials. Water (2%) and varying amounts of norbornene were then added. These were then put in a 55° C. oven and analyzed periodically.

[3] = Stabilization of 5-Chloro and 2-Methyl mixture by norbornene in dipropylene glycol containing 0.5% water, 55° C oven; assay type: physicochemical; details: DPG (0.5% water)
Procedure: To 19.9 g of dipropylene glycol was added 0.1 g of water. […] This solution was distributed into 6 vials and varying amounts of norbornene were added.

[4] = assay type: physicochemical; details: for 2-Methyl (%) / 5-Chloro (%): DPG, 55° C
Procedure: This solution was distributed into 6 vials (3 g each) and varying amounts of cyclohexene were added. The vials were then heated at 55° C. and analyzed periodically.

[5] = assay type: physicochemical; details: 2-propanol, 55° C
Procedure: Varying amounts of DHP were added and the vials put in a 55° C. oven. Active ingredient analysis was done periodically.

For Cn1sccc1=O [2-methyl-3-isothiazolone], the “% Remaining After X Days” value ([1]; 0% norbornene, 0 days) was 4.9%, the “% Remaining After X Days” value ([1]; 0% norbornene, 2 days) was 0.4% and the “% Remaining After X Days” value ([1]; 0% norbornene, 30 days) was 0.7%. For the same compound, the “stabilization with norbornene (in words)” value [1] was “completely stabilized”, the “% Remaining After X Days” value ([1]; 3% norbornene, 0 days) was 4.7% and the “% Remaining After X Days” value ([1]; 3% norbornene, 2 days) was 4.4%. The “% Remaining After X Days” value ([1]; 3% norbornene, 30 days) was 3.9%, the “% Remaining After X Days” value ([1]; 6.3% norbornene, 0 days) was 4.5% and the “% Remaining After X Days” value ([1]; 6.3% norbornene, 2 days) was 4.3%. The “% Remaining After X Days” value ([1]; 6.3% norbornene, 30 days) was 4.0%, the “% Remaining After X Days” value ([1]; 11.8% norbornene, 0 days) was 4.2% and the “% Remaining After X Days” value ([1]; 11.8% norbornene, 2 days) was 4.0%. For the same compound, the “% Remaining After X Days” value ([1]; 11.8% norbornene, 30 days) was 3.9%, the “% Remaining After X Days” value ([1]; 16.7% norbornene, 0 days) was 4.0% and the “% Remaining After X Days” value ([1]; 16.7% norbornene, 2 days) was 3.9%. The “% Remaining After X Days” value ([1]; 16.7% norbornene, 30 days) was 3.7%, the “% Remaining After X Days” value ([1]; 21.0% norbornene, 0 days) was 3.9% and the “% Remaining After X Days” value ([1]; 21.0% norbornene, 2 days) was 3.8%. The “% Remaining After X Days” value ([1]; 21.0% norbornene, 30 days) was 3.7%, the “2-Methyl (%) / 5-Chloro (%)” value ([2]; 0% norbornene, 0 days) was 1.7% and the “2-Methyl (%) / 5-Chloro (%)” value ([2]; 0% norbornene, 7 days) was 0.22%. For the same compound, the “2-Methyl (%) / 5-Chloro (%)” value ([2]; 1.2% norbornene, 0 days) was 2.3%, the “2-Methyl (%) / 5-Chloro (%)” value ([2]; 1.2% norbornene, 7 days) was 0.14% and the “2-Methyl (%) / 5-Chloro (%)” value ([2]; 2.3% norbornene, 0 days) was 2.3%. For the same compound, the “2-Methyl (%) / 5-Chloro (%)” value ([2]; 2.3% norbornene, 7 days) was 0.08%, the “2-Methyl (%) / 5-Chloro (%)” value ([2]; 4.2% norbornene, 0 days) was 2.2% and the “2-Methyl (%) / 5-Chloro (%)” value ([2]; 4.2% norbornene, 7 days) was 0.10%. For the same compound, the “2-Methyl (%) / 5-Chloro (%)” value ([2]; 8.1% norbornene, 0 days) was 2.2%, the “2-Methyl (%) / 5-Chloro (%)” value ([2]; 8.1% norbornene, 7 days) was 0.10% and the “2-Methyl (%) / 5-Chloro (%)” value ([2]; 14.1% norbornene, 0 days) was 2.0%. For the same compound, the “2-Methyl (%) / 5-Chloro (%)” value ([2]; 14.1% norbornene, 7 days) was 0.97%, the “2-Methyl (%) / 5-Chloro (%)” value ([2]; 14.1% norbornene, 21 days) was 0.1% and the “2-Methyl (%) / 5-Chloro (%)” value ([3]; 0% norbornene, 0 days) was 4.5%. For the same compound, the “2-Methyl (%) / 5-Chloro (%)” value ([3]; 0% norbornene, 14 days) was 0.6%, the “2-Methyl (%) / 5-Chloro (%)” value ([3]; 1.6% norbornene, 0 days) was 4.4% and the “2-Methyl (%) / 5-Chloro (%)” value ([3]; 1.6% norbornene, 14 days) was 0.18%. The “2-Methyl (%) / 5-Chloro (%)” value ([3]; 3.2% norbornene, 0 days) was 4.3%, the “2-Methyl (%) / 5-Chloro (%)” value ([3]; 3.2% norbornene, 14 days) was 3.3% and the “2-Methyl (%) / 5-Chloro (%)” value ([3]; 3.2% norbornene, 30 days) was 0.6%. For the same compound, the “2-Methyl (%) / 5-Chloro (%)” value ([3]; 6.5% norbornene, 0 days) was 4.2%, the “2-Methyl (%) / 5-Chloro (%)” value ([3]; 6.5% norbornene, 14 days) was 3.7% and the “2-Methyl (%) / 5-Chloro (%)” value ([3]; 6.5% norbornene, 30 days) was 2.7%. The “2-Methyl (%) / 5-Chloro (%)” value ([3]; 9.0% norbornene, 0 days) was 4.1%, the “2-Methyl (%) / 5-Chloro (%)” value ([3]; 9.0% norbornene, 14 days) was 3.7% and the “2-Methyl (%) / 5-Chloro (%)” value ([3]; 9.0% norbornene, 30 days) was 3.3%. For the same compound, the “2-Methyl (%) / 5-Chloro (%)” value ([3]; 14.3% norbornene, 0 days) was 4.4%, the “2-Methyl (%) / 5-Chloro (%)” value ([3]; 14.3% norbornene, 14 days) was 3.6% and the “2-Methyl (%) / 5-Chloro (%)” value ([3]; 14.3% norbornene, 30 days) was 3.3%. The “2-Methyl (%) / 5-Chloro (%)” value ([4]; 0% cyclohexene, 0 days) was 5.0%, the “2-Methyl (%) / 5-Chloro (%)” value ([4]; 0% cyclohexene, 13 days) was 0.49% and the “2-Methyl (%) / 5-Chloro (%)” value ([4]; 3.2% cyclohexene, 0 days) was 4.7%. For the same compound, the “2-Methyl (%) / 5-Chloro (%)” value ([4]; 3.2% cyclohexene, 13 days) was 0.35%, the “2-Methyl (%) / 5-Chloro (%)” value ([4]; 6.8% cyclohexene, 0 days) was 4.6% and the “2-Methyl (%) / 5-Chloro (%)” value ([4]; 6.8% cyclohexene, 13 days) was 0.23%. For the same compound, the “2-Methyl (%) / 5-Chloro (%)” value ([4]; 9.1% cyclohexene, 0 days) was 4.5%, the “2-Methyl (%) / 5-Chloro (%)” value ([4]; 9.1% cyclohexene, 13 days) was 0.95% and the “2-Methyl (%) / 5-Chloro (%)” value ([4]; 9.1% cyclohexene, 30 days) was 0.66%. For the same compound, the “2-Methyl (%) / 5-Chloro (%)” value ([4]; 11.8% cyclohexene, 0 days) was 4.4%, the “2-Methyl (%) / 5-Chloro (%)” value ([4]; 11.8% cyclohexene, 13 days) was 0.59% and the “2-Methyl (%) / 5-Chloro (%)” value ([4]; 11.8% cyclohexene, 30 days) was 0.62%. The “2-Methyl (%) / 5-Chloro (%)” value ([4]; 16.7% cyclohexene, 0 days) was 4.3%, the “2-Methyl (%) / 5-Chloro (%)” value ([4]; 16.7% cyclohexene, 13 days) was 2.6% and the “2-Methyl (%) / 5-Chloro (%)” value ([4]; 16.7% cyclohexene, 30 days) was 0.46%. For the same compound, the “2-Methyl (%) / 5-Chloro (%)” value ([5]; 0% DHP, 0 days) was 5.3%, the “2-Methyl (%) / 5-Chloro (%)” value ([5]; 0% DHP, 12 days) was 0.4% and the “2-Methyl (%) / 5-Chloro (%)” value ([5]; 3.5% DHP, 0 days) was 5.1%. For the same compound, the “2-Methyl (%) / 5-Chloro (%)” value ([5]; 3.5% DHP, 12 days) was 0.7%, the “2-Methyl (%) / 5-Chloro (%)” value ([5]; 6.3% DHP, 0 days) was 5.0% and the “2-Methyl (%) / 5-Chloro (%)” value ([5]; 6.3% DHP, 12 days) was 0.6%. For the same compound, the “2-Methyl (%) / 5-Chloro (%)” value ([5]; 11.8% DHP, 0 days) was 4.2%, the “2-Methyl (%) / 5-Chloro (%)” value ([5]; 11.8% DHP, 12 days) was 0.7% and the “2-Methyl (%) / 5-Chloro (%)” value ([5]; 16.7% DHP, 0 days) was 4.4%. The “2-Methyl (%) / 5-Chloro (%)” value ([5]; 16.7% DHP, 12 days) was 0.7%, the “2-Methyl (%) / 5-Chloro (%)” value ([5]; 21.1% DHP, 0 days) was 4.2% and the “2-Methyl (%) / 5-Chloro (%)” value ([5]; 21.1% DHP, 12 days) was 0.6%.
For C1=CCCCC1 [cyclohexene], the “stabilizer function (in words)” value [4] was “functions as a stabilizer”.
In the case of C1=CC2CCC1C2 [norbornene], the “stability realized (in words)” value [2] was “Some stability is realized” and the “stabilization properties in presence of water (in words)” value [2] was “overwhelms the stabilization properties”.
